Reference: PMC4721062, “Oxadiazole-2-oxides may have other functional targets, in addition to SjTGR, through which they cause mortality in Schistosoma japonicum” (Parasites & Vectors, 2016)
Like-named read-outs stand apart in the source and are kept apart here.

Experiments:
[1] = tested on: juvenile S. japonicum; assay: microbe, parasite or virus in culture; assay type: cell-based; settings: for mortality at 100 µM / killing at 2 µM / killing at 5 µM / killing at 50 µM / mortality at 50 µM: Schistosoma japonicum; for mortality at 100 µM / mortality at 50 µM: read-out: Mortality of juvenile worms; for killing at 2 µM / killing at 5 µM / killing at 50 µM / Killing activity 24hr / Killing activity 48hr / Killing activity 72hr: juvenile worms; for Killing activity 24hr / Killing activity 48hr / Killing activity 72hr: 10 μM
Method in brief: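 Juvenile S. japonicum, 20–30 tail-shed cercariae per well, were exposed to compounds at 2, 5, 10 and 50 μM in RPMI 1640 with 10% FBS and HEPES. Survival was scored microscopically at 24, 48 and 72 h, with death defined by disrupted internal structure or tegument or 1 min without motility. % D is dead/total, averaged over three experiments.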

[2] = tested on: adult S. japonicum; assay: microbe, parasite or virus in culture; assay type: cell-based; settings: for mortality at 100 µM / killing at 25 µM / killing at 50 µM / killing at 100 µM / mortality at 25 µM / mortality at 10 µM / mortality at 50 µM: Schistosoma japonicum; for mortality at 100 µM / mortality at 25 µM / mortality at 10 µM / mortality at 50 µM: read-out: Mortality of adult worms; for killing at 25 µM / killing at 50 µM / killing at 100 µM / Killing activity 24hr / Killing activity 48hr / Killing activity 72hr: adult worms
Method in brief: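 Adult worm pairs recovered by portal perfusion from ICR mice 35 days after infection with 50 cercariae, cultured in RPMI 1640 (pH 7.5, 20 mM HEPES, 10% FBS) at 37 °C, 5% CO2. Oxadiazole-2-oxides at 10, 25, 50, 100 μM; motility and survival scored microscopically at 24, 48, 72 h, death being no movement over 2 min; three independent experiments averaged.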

[3] = 24 h, read-out: Killing activity 24hr
[4] = 48 h, read-out: Killing activity 48hr
[5] = 72 h, read-out: Killing activity 72hr
[6] = 25 μM, 24 h, read-out: Killing activity 24hr
[7] = 25 μM, 48 h, read-out: Killing activity 48hr
[8] = 25 μM, 72 h, read-out: Killing activity 72hr

| SMILES | killing at 2 µM [1, 3] | killing at 2 µM [1, 4] | killing at 2 µM [1, 5] | killing at 5 µM [1, 3] | killing at 5 µM [1, 4] | killing at 5 µM [1, 5] | killing at 50 µM [1, 3] | killing at 50 µM [1, 4] | killing at 50 µM [1, 5] | Killing activity 24hr ([1]; 24 h) | Killing activity 48hr ([1]; 48 h) | Killing activity 72hr ([1]; 72 h) | killing at 25 µM [2, 7] | killing at 25 µM [2, 8] | killing at 50 µM [2, 3] | killing at 50 µM [2, 4] | killing at 50 µM [2, 5] | killing at 100 µM [2, 3] | killing at 100 µM [2, 4] | killing at 100 µM [2, 5] | further results |
| --- | --- | --- | --- | --- | --- | --- | --- | --- | --- | --- | --- | --- | --- | --- | --- | --- | --- | --- | --- | --- | --- |
| COc1ccc(-c2no[n+]([O-])c2CO)cc1 [Compound 4a] | 29.4% | 35.3% | 44.1% | 36.2% | 48.9% | 53.2% | 56.8% | 88.6% | 90.9% | 26.7%D | 37.8%D | 58.9%D | 100% | 100% | 88.9% | 100% | 100% | 100% | 100% | 100% | mortality at 100 µM ([1]; 72 h): 90 ± 2.8%; mortality at 100 µM [2]: 100%; killing at 25 µM [2, 6]: 50%; Killing activity 24hr ([2]; 10 μM, 24 h): 37.5%D; Killing activity 48hr ([2]; 10 μM, 48 h): 37.5%D; Killing activity 72hr ([2]; 10 μM, 72 h): 50.0%D |
| Cc1ccc(-c2no[n+]([O-])c2CO)cc1 [Compound 4b] | 35.2% | 35.2% | 42.3% | 42.9% | 46.9% | 51% | 76.5% | 88.2% | 100% | 48.0%D | 50.0%D | 60.0%D | 81.8% | 66.7% | 60% | 80% | 100% | 57.1% | 100% | 100% | mortality at 50 µM ([1]; 24 h): > 70%; mortality at 100 µM ([1]; 72 h): 100%; mortality at 100 µM ([2]; 24 h): 57.1 ± 2.1%; mortality at 100 µM ([2]; 48 h): 100%; killing at 25 µM [2, 6]: 63.6%; Killing activity 24hr ([2]; 10 μM, 24 h): n.e.; Killing activity 48hr ([2]; 10 μM, 48 h): n.e.; Killing activity 72hr ([2]; 10 μM, 72 h): n.e. |
| COc1ccc(-c2no[n+]([O-])c2C#N)cc1 [Compound 7a] | 14.6% | 29.2% | 41.7% | 15.7% | 39.2% | 39.2% | 46.2% | 53.3% | 70% | 36.7%D | 36.7%D | 60.0%D | 100% | 100% | 87.5% | 100% | 100% | 100% | 100% | 100% | mortality at 25 µM ([2]; 24 h): > 75%; mortality at 10 µM ([2]; 72 h): 100%; killing at 25 µM [2, 6]: 88.9%; Killing activity 24hr ([2]; 10 μM, 24 h): 70.0%D; Killing activity 48hr ([2]; 10 μM, 48 h): 100.0%D; Killing activity 72hr ([2]; 10 μM, 72 h): 100.0%D |
| Cc1ccc(-c2no[n+]([O-])c2C#N)cc1 [Compound 7b] | 16% | 26.6% | 31.9% | 21.1% | 26.3% | 36.8% | 47.5% | 55.9% | 57.6% | 23.8%D | 33.3%D | 57.1%D | 100% | 100% | 100% | 100% | 100% | 100% | 100% | 100% | mortality at 25 µM ([2]; 24 h): > 75%; mortality at 10 µM ([2]; 72 h): 83.3 ± 4.7%; killing at 25 µM [2, 6]: 100%; Killing activity 24hr ([2]; 10 μM, 24 h): 16.7%D; Killing activity 48hr ([2]; 10 μM, 48 h): 50.0%D; Killing activity 72hr ([2]; 10 μM, 72 h): 83.3%D |
| N#Cc1c(-c2ccc(Br)cc2)no[n+]1[O-] [Compound 7c] | 100% | 100% | 100% | 100% | 100% | 100% | 100% | 100% | 100% | 100.0%D | 100.0%D | 100.0%D | 100% | 100% | 100% | 100% | 100% | 100% | 100% | 100% | mortality at 50 µM ([1]; 24 h): > 70%; mortality at 50 µM ([1]; 72 h): 100%; mortality at 25 µM ([2]; 24 h): > 75%; mortality at 50 µM ([2]; 24 h): 100%; mortality at 10 µM ([2]; 72 h): 70 ± 7.1%; killing at 25 µM [2, 6]: 77.8%; Killing activity 24hr ([2]; 10 μM, 24 h): n.e.; Killing activity 48hr ([2]; 10 μM, 48 h): 70.0%D; Killing activity 72hr ([2]; 10 μM, 72 h): 70.0%D |
| N#Cc1c(-c2ccc(O)cc2)no[n+]1[O-] [Compound 8] | 12% | 18% | 21% | 12.8% | 23% | 46.2% | 26.8% | 28.2% | 33.8% | 15.1%D | 23.3%D | 25.6%D | 66.7% | 100% | 77.8% | 88.9% | 100% | 100% | 100% | 100% | mortality at 50 µM ([1]; 24 h): < 30%; mortality at 10 µM ([2]; 72 h): 71.4 ± 0.9%; killing at 25 µM [2, 6]: 50%; Killing activity 24hr ([2]; 10 μM, 24 h): n.e.; Killing activity 48hr ([2]; 10 μM, 48 h): 57.1%D; Killing activity 72hr ([2]; 10 μM, 72 h): 71.4%D |
| N#Cc1c(-c2ccc(OCCBr)cc2)no[n+]1[O-] [Compound 12] | 17.3% | 17.3% | 19.2% | 16.4% | 18.2% | 23.6% | 33.3% | 36.2% | 72.5% | 21.3%D | 21.3%D | 28.8%D | 100% | 100% | 88.9% | 100% | 100% | 100% | 100% | 100% | mortality at 50 µM ([1]; 24 h): < 30%; mortality at 25 µM ([2]; 24 h): > 75%; killing at 25 µM [2, 6]: 80%; Killing activity 24hr ([2]; 10 μM, 24 h): sluggish; Killing activity 48hr ([2]; 10 μM, 48 h): sluggish; Killing activity 72hr ([2]; 10 μM, 72 h): 55.6%D |
| N#Cc1c(-c2ccc(OCCCBr)cc2)no[n+]1[O-] [Compound 13] | 13% | 13% | 13% | 14.2% | 15.5% | 15.5% | 23.3% | 29.9% | 41% | 19.0%D | 19.0%D | 20.3%D | 100% | 100% | 100% | 100% | 100% | 100% | 100% | 100% | mortality at 50 µM ([1]; 24 h): < 30%; mortality at 50 µM ([1]; 72 h): 41 ± 6.3%; mortality at 50 µM ([2]; 24 h): 100%; Killing activity 24hr ([2]; 10 μM, 24 h): sluggish; Killing activity 48hr ([2]; 10 μM, 48 h): 90.0%D; Killing activity 72hr ([2]; 10 μM, 72 h): 100%D; Killing activity 24hr ([2]; 25 μM, 24 h): sluggish |
| N#Cc1c(-c2ccc(OC/C=C/CBr)cc2)no[n+]1[O-] [Compound 16] | 14.7% | 22.7% | 25.3% | 16.1% | 21.9% | 34.3% | 31.4% | 60.5% | 72.1% | 20.9%D | 27.3%D | 39.1%D | 75% | 100% | 100% | 100% | 100% | 100% | 100% | 100% | mortality at 50 µM ([1]; 24 h): < 30%; mortality at 50 µM ([1]; 72 h): 72.1 ± 3.7%; mortality at 50 µM ([2]; 24 h): 100%; killing at 25 µM [2, 6]: 50%; Killing activity 24hr ([2]; 10 μM, 24 h): n.e.; Killing activity 48hr ([2]; 10 μM, 48 h): 50.0%D; Killing activity 72hr ([2]; 10 μM, 72 h): 80.0%D |
